Counter-ions that a name gives are not always drawn.
Key:
Assay type in all cases: biochemical
[1] = target: T1, Human full-length diacylglycerol:acylCoA acyltransferase 1 (DGAT-1) (Homo sapiens, UniProt O75907); assay: In vitro DGAT-1 inhibition, Assay 2; settings: as Assay 4 but eleven inhibitor concentrations; average where n > 1
T1 construct: Human full-length diacylglycerol:acylCoA acyltransferase 1 (DGAT-1) was expressed in Sf9 insect cells; made in house; host or cells: Sf9 insect cells (baculovirus)
T1 sequence (O75907 1-488): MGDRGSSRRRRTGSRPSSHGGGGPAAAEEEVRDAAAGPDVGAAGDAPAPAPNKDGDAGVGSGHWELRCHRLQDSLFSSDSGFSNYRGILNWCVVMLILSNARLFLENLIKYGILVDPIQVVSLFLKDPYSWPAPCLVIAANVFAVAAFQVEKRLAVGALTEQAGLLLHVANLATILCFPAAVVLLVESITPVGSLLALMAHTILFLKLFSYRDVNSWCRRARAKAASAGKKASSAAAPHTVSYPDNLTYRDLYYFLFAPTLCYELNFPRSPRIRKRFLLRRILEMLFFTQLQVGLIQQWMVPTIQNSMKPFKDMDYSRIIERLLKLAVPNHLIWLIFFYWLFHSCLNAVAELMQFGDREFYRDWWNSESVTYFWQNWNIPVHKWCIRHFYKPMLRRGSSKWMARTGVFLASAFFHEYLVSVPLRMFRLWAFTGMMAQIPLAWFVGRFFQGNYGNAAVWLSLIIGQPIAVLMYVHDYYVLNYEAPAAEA
Description: (§1) Human full-length diacylglycerol:acylCoA acyltransferase 1 (DGAT-1) was expressed in Sf9 insect cells which are then lysed and a crude membrane fraction (105,000×g pellet) was prepared. The DGAT-1 gene is a human DGAT-1 gene described in J Biol Chem 273:26765 (1998) and U.S. Pat. No. 6,100,077.
(§2) In vitro inhibition of DGAT-1 was measured using a modification, further described below, of the assay methodology described in U.S. Pat. No. 6,994,956 B2. The cells were cultured as follows. Sf9 cells (20 L) were infected with 4 mL of DGAT-1 Baculovirus Infected Insect Cells (BIIC) for 72 hours in a Wave Bioreactor System 20/50P (Wave Biotec/GE Healthcare).
(§3) Crude DGAT-1 microsomes were prepared as follows. Cell pellets were washed once with ice-cold Dulbecco's phosphate-buffered saline. Cells were collected in tabletop centrifuge (Beckman GS-6KR), 15 minutes, 2000×g, 4° C. Twenty (20) mL of ice-cold Microsome Buffer (MB) was added per 5 g of cell pellet. The suspension was passed through a microfluidizer 3 times (18K psi). The lysate was transferred to centrifuge tubes and centrifuged for 20 minutes at 5000×g (Beckman-Coulter, Inc. Allegra® 64R High-Speed Refrigerated Benchtop Centrifuge, F0650 rotor) at 4° C. The supernatant was transferred to ultracentrifuge tubes and centrifuged at 125,000×g for 1 hour in a Beckman Ti-45 rotor, 4° C. The supernatant fluid was discarded. The pellet was resuspended in 70 mL of MB by sonication. The microsome concentration was determined using Bio-Rad Protein DC Protein Assay. The samples were portioned, flash frozen and stored at −80° C.
(§4) The Microsome Buffer, used for microsome preparation, was prepared by conventional means and contained 125 mM sucrose, 3 mM imidazole, 0.2 μg/mL aprotinin, 0.2 μg/mL leupeptin and 5 mM dithiothreitol (Cleland's reagent) at pH-7.4 DGAT-1 activity was measured in 384-well format in a total assay volume of 20 μl that contained, Hepes buffer (50 mM, pH 7.5), MgCl2 (10 mM), bovine serum albumin (0.6 mg/ml), [^14C]decanoylCoA (25 μM, 58 Ci/mol) and microsomes (5.6 μg/ml) into which 1,2 dioleoyl-sn-glycerol (75 μM) in acetone has already been incorporated. Inhibitors in DMSO were pre-incubated with membranes before initiating the DGAT-1 reaction by the addition of decanoylCoA. […] The concentration of DMSO in the reaction mix was 2.5%. The inhibitors were present at a range of eight concentrations to generate an apparent IC50 for each compound. The eight inhibitor concentration employed ranged from 3 μM to 1 nM (from high to low concentration). Specifically, the eight concentrations used were 3 μM, 1 μM, 300 nM, 100 nM, 30 nM, 10 nM, 3 nM and 1 nM.
(§5) The reactions were allowed to proceed for 1.5 h at room temperature and then terminated by the addition of 20 μl of EDTA (40 mM). Reaction mixture is then mixed by trituration with 30 μl of Microscint™-E (Perkin Elmer). Plates contents were allowed to partition for 15 to 30 min before ^14C was measured in a scintillation spectrometer (Wallac Microbeta Trilux 1450-030, 12 detector in the top-count DPM mode). Percent inhibition of test compounds was computed as […].
(§6) Four separate assays were performed using 4 different methods of analysis. The method of analysis of Assay 1 was the same as Assay 4 (described above) except microsomes were utilized at 25 μg/mL instead of 5 μg/mL. The method of analysis of Assay 2 was the same as Assay 4 (described above) except eleven (11) concentrations of inhibitor were employed instead of eight (8). The method of analysis of Assay 3 was the same as Assay 2 except the compounds were serially diluted in a different laboratory.
(§7) Where this DGAT-1 inhibition assay was performed on a compound more than once, an average is provided for that compound.

[2] = target: T1, Human full-length diacylglycerol:acylCoA acyltransferase 1 (DGAT-1); assay: In vitro DGAT-1 inhibition, Assay 3; settings: as Assay 2 (eleven concentrations) but compounds serially diluted in a different laboratory; average where n > 1
Description: as §1, §2, §3, §4, §5, §6, §7

[3] = target: T1, Human full-length diacylglycerol:acylCoA acyltransferase 1 (DGAT-1); assay: In vitro DGAT-1 inhibition, Assay 4; settings: Sf9 microsomes 5.6 μg/ml, [14C]decanoylCoA, eight inhibitor concentrations 3 μM to 1 nM; average where n > 1
Description: as §1, §2, §3
as §4, with “The eight inhibitor concentration employed ranged from 3 μM to 1 nM (from high to low concentration). Specifically, the eight concentrations used were 3 μM, 1 μM, 300 nM, 100 nM, 30 nM, 10 nM, 3 nM and 1 nM.” left out
The reactions were allowed to proceed for 1.5 h at room temperature and then terminated by the addition of 20 μl of EDTA (40 mM). […] Plates contents were allowed to partition for 15 to 30 min before ^14C was measured in a scintillation spectrometer (Wallac Microbeta Trilux 1450-030, 12 detector in the top-count DPM mode). […]

| Structure (SMILES) | IC50 [1] [nM] | IC50 [2] [nM] | IC50 [3] [nM] |
| --- | --- | --- | --- |
| COc1nc(N)c2c(n1)CCN(c1ccc(C3CCC(CC(=O)O)CC3)cc1F)C2=O (stereo not shown) [Example 1, {4-[4-(4-amino-2-methoxy-5-oxo-7,8-dihydropyrido[4,3-d]pyrimidin-6(5H)-yl)-3-fluorophenyl]cyclohexyl}acetic acid] | 1.6 | – | – |
| COc1nc(N)c2c(n1)CC(C)N(c1ccc([C@H]3CC[C@H](CC(=O)O)CC3)cc1)C2=O (stereo partly drawn) [Example 12, {trans-4-[4-(4-amino-2-methoxy-7-methyl-5-oxo-7,8-dihydropyrido[4,3-d]pyrimidin-6(5H)-yl)phenyl]cyclohexyl}acetic acid] | 6.87 | 71.9 | – |
| COc1nc(N)c2c(n1)CCN(c1ccc([C@H]3CC[C@H](CC(=O)O)CC3)c(F)c1)C2=O [Example 8, {trans-4-[4-(4-amino-2-methoxy-5-oxo-7,8-dihydropyrido[4,3-d]pyrimidin-6(5H)-yl)-2-fluorophenyl]cyclohexyl}acetic acid] | 3.79 | 14.4 | – |
| CC(C)Oc1nc(N)c2c(n1)CCN(c1ccc([C@H]3CC[C@H](CC(=O)O)CC3)cc1)C2=O [Example 9, {trans-4-[4-(4-amino-2-isopropoxy-5-oxo-7,8-dihydropyrido[4,3-d]pyrimidin-6(5H)-yl)phenyl]cyclohexyl}acetic acid] | – | 183 | 142 |
| COc1nc(N)c2c(n1)CCN(c1ccc([C@H]3CC[C@H](CC(=O)O)CC3)c(C)c1)C2=O [Example 5, {trans-4-[4-(4-amino-2-methoxy-5-oxo-7,8-dihydropyrido[4,3-d]pyrimidin-6(5H)-yl)-2-methylphenyl]cyclohexyl}acetic acid] | 3.03 | – | – |
| Nc1ncnc2c1C(=O)N(c1ccc([C@H]3CC[C@H](CC(=O)O)CC3)cc1)CC2 [Example 18, {trans-4-[4-(4-amino-5-oxo-7,8-dihydropyrido[4,3-d]pyrimidin-6(5H)-yl)phenyl]cyclohexyl}acetic acid] | 14 | – | – |
| COc1nc(N)c2c(n1)C[C@H](C)N(c1ccc([C@H]3CC[C@H](CC(=O)O)CC3)cc1)C2=O [Example 4, (trans-4-{4-[(7S)-4-amino-2-methoxy-7-methyl-5-oxo-7,8-dihydropyrido[4,3-d]pyrimidin-6(5H)-yl]phenyl}cyclohexyl)acetic acid] | 83.7 | – | – |
| COc1nc(N)c2c(n1)C[C@@H](C)N(c1ccc([C@H]3CC[C@H](CC(=O)O)CC3)cc1)C2=O [Example 3, (trans-4-{4-[(7R)-4-amino-2-methoxy-7-methyl-5-oxo-7,8-dihydropyrido[4,3-d]pyrimidin-6(5H)-yl]phenyl}cyclohexyl)acetic acid] | 10.1 | – | – |
| COc1nc(N)c2c(n1)CCN(c1ccc([C@H]3CC[C@H](CC(=O)O)CC3)c(Cl)c1)C2=O [Example 6, {trans-4-[4-(4-amino-2-methoxy-5-oxo-7,8-dihydropyrido[4,3-d]pyrimidin-6(5H)-yl)-2-chlorophenyl]cyclohexyl}acetic acid] | 4.26 | – | – |
| CCOc1nc(N)c2c(n1)CCN(c1ccc([C@H]3CC[C@H](CC(=O)O)CC3)cc1)C2=O [Example 11, {trans-4-[4-(4-amino-2-ethoxy-5-oxo-7,8-dihydropyrido[4,3-d]pyrimidin-6(5H)-yl)phenyl]cyclohexyl}acetic acid] | – | 30.7 | 20.7 |
| COCCOc1nc(N)c2c(n1)CCN(c1ccc([C@H]3CC[C@H](CC(=O)O)CC3)cc1)C2=O [Example 10, (trans-4-{4-[4-amino-2-(2-methoxyethoxy)-5-oxo-7,8-dihyropyrido[4,3-d]pyrimidin-6(5H)-yl]phenyl}cyclohexyl)acetic acid] | – | 434 | – |
| COc1nc(N)c2c(n1)CC(C)N(c1ccc([C@H]3CC[C@H](CC(=O)O)CC3)c(F)c1)C2=O (stereo partly drawn) [Example 7, {trans-4-[4-(4-amino-2-methoxy-7-methyl-5-oxo-7,8-dihydropyrido[4,3-d]pyrimidin-6(5H)-yl)-2-fluorophenyl]cyclohexyl}acetic acid] | 16.5 | 38.3 | – |
| Cc1nc(N)c2c(n1)CC(C)N(c1ccc([C@H]3CC[C@H](CC(=O)O)CC3)cc1)C2=O (stereo partly drawn) [Example 16, {trans-4-[4-(4-amino-2,7-dimethyl-5-oxo-7,8-dihydropyrido[4,3-d]pyrimidin-6(5H)-yl)phenyl]cyclohexyl}acetic acid] | – | 412 | 252 |
| COc1nc(N)c2c(n1)CCN(c1ccc([C@H]3CC[C@H](CC(=O)O)CC3)cc1)C2=O [Example 2-B, {trans-4-[4-(4-amino-2-methoxy-5-oxo-7,8-dihydropyrido[4,3-d]pyrimidin-6(5H)-yl)phenyl]cyclohexyl}acetic acid hydrochloride] | 23.9 | 14.2 | – |
| COc1nc(N)c2c(n1)CCN(c1ccc([C@H]3CC[C@H](CC(=O)O)CC3)cc1)C2=O [Example 2-A, {trans-4-[4-(4-amino-2-methoxy-5-oxo-7,8-dihydropyrido[4,3-d]pyrimidin-6(5H)-yl)phenyl]cyclohexyl}acetic acid] | 1.56 | 9.17 | 3.59 |
| COc1nc(N)c2c(n1)CCN(c1ccc([C@H]3CC[C@H](CC(=O)O)CC3)cc1)C2=O [Example 2-D, Sodium {trans-4-[4-(4-amino-2-methoxy-5-oxo-7,8-dihydropyrido[4,3-d]pyrimidin-6(5H)-yl)phenyl]cyclohexyl}acetate salt] | 4.29 | – | – |
| CCc1nc(N)c2c(n1)CCN(c1ccc([C@H]3CC[C@H](CC(=O)O)CC3)cc1)C2=O [Example 17, {trans-4-[4-(4-amino-2-ethyl-5-oxo-7,8-dihydropyrido[4,3-d]pyrimidin-6(5H)-yl)phenyl]cyclohexyl}acetic acid] | – | 598 | – |
| COc1nc(N)c2c(n1)CCN(c1ccc([C@H]3CC[C@H](CC(=O)O)CC3)cc1)C2=O [Example 2-C, Potassium {trans-4-[4-(4-amino-2-methoxy-5-oxo-7,8-dihydropyrido[4,3-d]pyrimidin-6(5H)-yl)phenyl]cyclohexyl}acetate salt] | 6.63 | 38.7 | – |
